Measurements reported in patent US11096940B2, “Treatment of hepatocellular carcinoma characterized by hepatitis B virus infection” (Celgene Corporation, priority 2017, dated 2021).
“Also recorded” adds a separate entry of the source.

Legend:
Assay type in all cases: in vivo, human
[1] = test system: alpha-fetoprotein (AFP); test: Assessment of AFP in HCC patients; settings: two HBV positive HCC patients with PR (FIG. 10)
Experimental: For the HCC subjects, baseline and change from baseline in AFP and HBV viral load (HBsAg positive subjects only) were summarized with descriptive statistics. In addition, a Wilcoxon's signed rank test was conducted to analyze change from baseline in AFP at selected scheduled visits. The p-values of such tests were provided. Change from baseline in HBV viral load was analyzed similarly. The percentage of subjects with a >50% decline from baseline in AFP was summarized for the TP.

[2] = test system: subjects with various hematologic or solid malignancies; test: Phase 1/2 clinical study Part A, dose escalation (MTD determination); settings: oral
Experimental: The study was designed as a Phase 1/2 trial consisting of two parts: dose escalation (Part A) and dose expansion (Part B).
Part A was an open-label, dose-escalating study of subjects with various hematologic or solid malignancies. The primary objectives were to determine the maximum tolerated dose (MTD) and the preliminary PK of Compound 1. The MTD of Compound 1 was determined to be 45 mg/day, and the nontolerated dose (NTD) was determined to be 60 mg/day. The PK and PD data supported once daily dosing with Compound 1.

[3] = test system: subjects with HCC; test: Phase 1/2 clinical study Part B, dose expansion: efficacy (RECIST response, OS, PFS) in HCC subjects
Excerpt: Part B, the preliminary efficacy-seeking phase, was an open-label, dose-expansion study, which involved subjects with HCC.
(§1) Subjects received continuous daily dosing of Compound 1 in 28-day cycles (FIG. 1). Therapy was discontinued if there was evidence of disease progression, but subjects continued to receive Compound 1 as long as the investigator considered that the subjects derived benefit from treatment. Therapy was discontinued if there was unacceptable toxicity or if the subject decided to withdraw from the study. Subjects were contacted 28 days after the last dose of study drug to assess the status of adverse events (AEs) and to determine whether any new events or death had occurred. In addition to those subjects who had died on study, approximately 28 subjects were consented for follow-up every 2 months (±1 week) after completing the treatment phase in order to determine their date of death and complete an overall survival analysis.
Accordingly to the original protocol of Part B, 25 HCC patients started treatment of Compound 1 at 45 mg/day. After the protocol Amendment 9, 28 new HCC subjects in an additional cohort were started at 30 mg/day. The appropriateness of the 30 mg/day dose was supported by the PK and PD data from Part A. Compound 1 was administered orally, in an uninterrupted once daily schedule with no rest period between each 28-day cycle. Subjects continued to receive Compound 1 for as long as they derived benefit from treatment as judged by the investigator.
All efficacy analyses were based on both the TP and EE Population. Subjects were evaluated for efficacy during Cycles 2, 4, 6, and every 3 months after Cycle 6. The primary efficacy variable was response rate. Efficacy endpoints for HCC matured once all enrolled subjects had withdrawn from the study.
Tumor response for HCC was based on investigator's overall evaluation with RECIST. Response rate was determined by a best overall response of either CR or PR. Disease control rate (DCR) included CR, PR, and SD.
OS was defined as the time from first dose to death. All deaths, regardless of the cause of death, were included. Subjects who had not died were censored at the last contact date when the subject was known to be alive or the clinical cut-off date, whichever was earlier.
Median of OS times were calculated using the Kaplan-Meier method and the corresponding 95% CIs were presented.

[4] = PK analysis: plasma concentration in HCC patients by HBV status; settings: after oral Compound 1, first treatment cycle; FIGS. 3A, 3B
Experimental: The PK profiles of Compound 1 and its metabolite M1 were determined from serial blood and urine collections during the first treatment cycle. Plasma and urine Compound 1 and M1 were measured using validated chiral liquid chromatography-mass spectrometry methods. The lower limit of quantification (LLOQ) in plasma was 1.00 or 2.00 ng/mL for Compound 1 and 10.0 ng/mL for M1. The LLOQ in urine was 5.00 ng/mL for Compound 1 and 20 ng/mL for M1. […]

[5] = Phase 1/2 clinical study Part B: safety and tolerability in HCC subjects; settings: subjects with HCC
Excerpt: The primary objectives for Part B were (a) to determine the safety and tolerability of Compound 1 when administered orally and (b) to determine the preliminary PK of Compound 1 following both single and multiple oral dosing of Compound 1.
as §1

In the case of CO[C@H]1CC[C@H](N2C(=O)CNc3ncc(-c4ccc(C(C)(C)O)nc4)nc32)CC1 [Compound 1, 7-(6-(2-hydroxypropan-2-yl)pyridin-3-yl)-1-((trans)-4-methoxycyclohexyl)-3,4-dihydropyrazino[2,3-b]pyrazin-2(1H)-one], the “AFP on treatment compared to baseline” value [1] is reported as “early clinically significant, marked reduction of AFP”, the “maximum tolerated dose (MTD)” value [2] is reported as 45 mg/day and the “nontolerated dose (NTD)” value [2] is reported as 60 mg/day. The DCR ([3]; EE Population) was 68.3%, the ORR ([3]; EE Population) was 7.3% and the “rate of tumor regression relative to pretreatment” value ([3]; EE Population) was 56.1%. The “median OS” value ([3]; HBV infected HCC patients) was 12.07 months, the ORR ([3]; HBV negative subgroups) was 0% and the “disease control rate (DCR)” value ([3]; HBV negative subjects) was 43.9%. The “median OS” value ([3]; HBV negative subjects) was 22.4 weeks, the “median PFS” value ([3]; HBV negative subjects) was 14.4 weeks and the “target tumor shrinkage rate” value ([3]; HBV negative subjects) was 39.0%. For the same compound, the ORR ([3]; HBV positive subjects) was 25%, the “disease control rate (DCR)” value ([3]; HBV positive subjects) was 91.7% and the “median OS” value ([3]; HBV positive subjects) was 52.4 weeks. The “median PFS” value ([3]; HBV positive subjects) was 14.8 weeks, the “target tumor shrinkage rate” value ([3]; HBV positive subjects) was 66.7% and the “complete response (CR)” value ([3]; HCC TP) was “No subject experienced a CR”. For the same compound, the “overall response rate (ORR)” value ([3]; HCC TP) was 5.7%, the “subjects with best response of SD” value ([3]; HCC TP) was 49.1% and the “number of subjects with >30% regression of target tumor lesion” value ([3]; HCC cohort, RECIST 1.1 (FIG. 7)) was “Five”. The “median OS” value ([3]; HCC cohort, all patients (FIG. 5A)) was 6.9 months, the “median PFS” value ([3]; HCC cohort, all patients (FIG. 6A)) was 16 weeks and the “number of subjects achieving PR” value ([3]; HCC cohort, all HBV positive) was 3 subjects. For the same compound, the “median OS” value ([3]; TP) was 30.0 weeks, the “median PFS” value ([3]; TP) was 3.7 months and the “disease control rate (DCR)” value ([3]; all subjects (HCC TP)) was 54.7%. For the same compound, the “rate of target tumor shrinkage (target lesion regression relative to pretreatment)” value ([3]; all subjects (HCC TP)) was 45.3%, the “median OS” value ([3]; non-HBV infected HCC patients) was 5.16 months and the “median duration of response (DOR)” value ([3]; the 3 subjects who reached PR) was 124.0 days. For the same compound, the “median duration of SD” value ([3]; the 26 subjects with best response of SD) was 112.0 days, the “radiographic response at first on-treatment restaging compared to baseline” value ([3]; two HBV infected HCC patients, Patient A and Patient B (FIG. 9)) was “regression of intrathoracic metastases; also recorded: intrahepatic tumor regression” and the “plasma exposure in HBV infected HCC patients (n=12) versus non-HBV infected HCC patients (n=39)” value [4] was “comparable to the exposure observed in non-HBV infected HCC patients”. The tolerability [5] was “well tolerated”.
